Consider two molecules from patent publication US20070286886A1, “Materials And Methods For Inducing Apoptosis In Adipocytes” (University of Tennessee Research Foundation, priority 2004, published 2007).

The test system of one test is caspase-1. As to the kind of experiment: Caspase-1 mRNA expression by real-time PCR in 3T3-L1 and UCP2-transfected 3T3-L1 adipocytes. In kind it is cell-based. As to conditions: 24 h, control and UCP2-transfected 3T3-L1 cells. Here is the method:
(§1) 3T3-L1 preadipocytes were incubated at a density of 8000 cells/cm2 (10 cm2 dish) and grown in Dulbecco's modified Eagle's medium (DMEM) containing 10% FBS and antibiotics (adipocyte medium) at 37° C. in 5% CO2 in air. Confluent preadipocytes were induced to differentiate with a standard differentiation medium consisting of DMEM-F10 (1:1, vol/vol) medium supplemented with 1% FBS, 1 μM dexamethasone, IBMX (0.5 mM), and antibiotics (1% penicillin-streptomycin). Preadipocytes were maintained in this differentiation medium for 3 days and subsequently cultured in adipocyte medium. Cultures were re-fed every 2-3 days to allow 90% cells to reach full differentiation before they were chemically treated. Chemicals were freshly diluted in adipocyte medium before treatment. Cells were washed with fresh adipocyte medium, re-fed with medium containing the different treatments, and incubated at 37° C. in 5% CO2 in air before analysis. Cell viability was measured via trypan blue exclusion.
UCP2 full-length cDNAs were amplified by […] using mRNAs isolated from mouse white adipose tissues. The PCR primers for this amplification are shown as follows: UCP2 forward, 5′-[…]-3′, reverse, 5′-[…]-3′. The PCR products were then subcloned into pcDNA4/His expression vectors. The linearized constructs were transfected into 3T3-L1 preadipocytes using lipofectamine plus standard protocol (Invitrogen, Carlsbad, Calif.). After 48 h of transfection, cells were split and cultured in selective medium containing 400 ug/ml zeocin for the selection of resistant colonies. […]
(§2) Adipocyte caspase-1, caspase-3, Bcl-2, and Bax mRNA were quantitatively measured using a Smart Cycler Real Time PCR System (Cepheid, Sunnyvale, Calif.) with a TaqMan 1000 Core Reagent Kit (Applied Biosystems, Branchburg, N.J.). […] Reactions of quantitative RT-PCR for standards and unknown samples were Cepheid, Sunnyvale, Calif.) and TaqMan Real Time PCR Core Kit. The mRNA quantitation for each sample was further normalized using the corresponding 18 s quantitation, with a forward primer, 5′-[…]-3′, and a reverse primer, 5′-[…]-3′.

For test [1], the system named is 3T3-L1 and UCP2-transfected 3T3-L1 cells. Kind of test: Mitochondrial membrane potential (JC-1 fluorometry) in adipocytes. In kind it is cell-based. The note with it: for mitochondrial potential: 4 h. As for the experimental part:
Adipocytes were incubated with adipocyte medium for 4 h with or without 1α,25-(OH)2-D3. Mitochondrial membrane potential was analyzed fluorometrically with a lipophilic cationic dye JC-1 (5,5′,6,6′-tetrachloro-1,1′,3,3′-tetraethylbenzimidazol carbocyanine iodide) using a mitochondrial potential detection kit (Biocarta, San Diego, Calif.). Mitochondrial potential was determined as the ratio of red fluorescence (excitation 550 nm, emission 600 nm) and green fluorescence (excitation 485 nm, emission 535 nm) using a fluorescence microplate reader.
Adipocytes were incubated with adipocyte medium for 4 h with or without GDP, BK 8644, GDP plus BK8644. Mitochondrial membrane potential was analyzed fluorometrically with a lipophilic cationic dye JC-1 (5,5′,6,6′-tetrachloro-1,1′,3,3′-tetraethylbenzimidazol carbocyanine iodide) using a mitochondrial potential detection kit (Biocarta, San Diego, Calif.). Mitochondrial potential was determined as the ratio of red fluorescence (excitation 550 nm, emission 600 nm) and green fluorescence (excitation 485 nm, emission 535 nm) using a fluorescence microplate reader.

Test [2] has the same test system. Kind of test: ATP production (microplate luminometer) in adipocytes. Format: cell-based. The note with it: 4 h. Here is the method:
Adipocytes were incubated with adipocyte medium for 4 h with or without 1α,25-(OH)2-D3. ATP levels were measured using ENLITEN Total ATP Rapid Biocontamination Detection Kit (Promega, Madison, […].) according to the manufacturer's instructions. Cellular ATP was extracted as described previously and measured using a microplate luminometer (Labsystem, Helsinki, Finland). The integration time of the luminometer was set at 1 s with normal gain. Measurement of cytosolic Ca^2+ ([Ca^2+]c) and mitochondrial calcium([Ca^2+]m)

For another test, the system named is 3T3-L1 and L1-UCP2 cells. Kind of test: Adipocyte apoptosis in 3T3-L1 and L1-UCP2 cells. Format: cell-based. As for the experimental part:
as §1, with “Cells were washed with fresh adipocyte medium, re-fed with medium containing the different treatments, and incubated at 37° C. in 5% CO2 in air before analysis.” left out, “exclusion. […]” for “exclusion.”
as §2

For another test, the system named is UCP2. Kind of test: UCP2 expression in 3T3-L1 cells (western blot, UCP2/actin). Format: cell-based, mouse. The note with it: 3T3-L1 cells, BK8644. Here is the method: Duplex siRNA corresponding to UCP2 gene was designed and chemically synthesized by Invitrogen. The following gene-specific sequences were used successfully: Si-UCP2 sense 5′-GCCUCUACGACUCUGUCAA-3′ and antisense […]. Transfection of siRNA was performed with Oligofectamine™ reagent (Invitrogen Life Technologies, CA) in 6-well plates. Briefly, Oligofectamine diluted in DMEM was applied to the duplex siRNA mixture, and the formulation was continued for 20 min to allow the Oligofectamine-oligonucleotide complex to form. Per well, 800 μl of plating medium and 10 ul of 20 μM duplex siRNA duplex siRNA formulated with 4 μl of Oligofectamine were applied in a final volume of 1 ml. Cells were then incubated at […] in a CO2 incubator for 4 hrs. […]
Adipocytes were harvested and sonicated in a homogenization buffer containing 50 mM Tris-HCl (PH 7.4), 250 mM sucrose, 1 mM EDTA, 1 mM dithiothreitol, 1% (v/v) Triton X, 10% protease cocktail (Sigma). […] Homogenate intrafranatant protein from equal numbers of cells (determined via protein quantitation using Bradford method as described previously) was boiled in Laemmli sample buffer and subject to 10% SDS-polyacrylamide gel electrophoresis (PAGE). […] Visualization was detected with chemiluminescence reagent, using the Western Blotting Luminal Reagent (Santa Cruz Biotechnology, CA).

Turning to `C=C1/C(=C\C=C2/CCC[C@]3(C)[C@@H]([C@H](C)CCCC(C)(C)O)CC[C@@H]23)C[C@@H](O)C[C@@H]1O` [1α,25-(OH)2-D3, 1α,25-dihydroxyvitamin D3], the caspase-1 expression result was “stimulated” with caspase-1 (high dose 100 nM, P<0.01) and “inhibited” with caspase-1 (physiological low doses 0.1 nM, 1 nM, 5 nM, 10 nM, P<0.05). Moreover, the mitochondrial potential result in test [1] (high dose (100 nM)) was “collapse”; in test [1] (lower doses, 3T3-L1 and UCP2 stably transfected 3T3-L1 cells) it was “significantly increase”. In test [1] (physiological doses (0.1-10 nM), L1-UCP2 cells), the “mitochondrial Δψ in L1-UCP2 cells” value is recorded as “restored”. For the same molecule, the ATP production result in test [2] (high dose (100 nM), P<0.05) was “inhibited”; in test [2] (low dose, P<0.01) it was “markedly increased”. Also, in the test with 3T3-L1 and L1-UCP2 cells (high dose (100 nM), 3T3-L1 and L1-UCP2 cells, P<0.05), the apoptosis entry is reported as “stimulated”. Further, the UCP2 overexpression-induced apoptosis result in the test with 3T3-L1 and L1-UCP2 cells (physiological doses (0.1-10 nM), L1-UCP2 cells, P<0.01) is recorded as “protected”.
As for `COC(=O)C1=C(C)NC(C)=C([N+](=O)[O-])C1c1ccccc1C(F)(F)F` (centres unmarked) [Bay K 8644], in test [1] (3T3-L1 cells, BK8644 alone), the “effect on mitochondrial potential” value is recorded as “no effect”. In addition, the “effect on UCP2 expression” value with UCP2 is recorded as “no effect”.
